A word on the IC50: it is the point on the concentration scale where inhibition reaches its midpoint. Read a high IC50 as weaker potency in that assay. A word on the EC50: it is the midpoint of the concentration-response curve. Broadly, the CC50 is the concentration at which the toxic effect on the cells reaches its halfway point.

SMILES strings stand for the structures.

The target of one data set is Hepatitis C virus NS5B RNA-dependent RNA polymerase (Hepatitis C virus, UniProt Q8JXU8). In words: Inhibition of Hepatitis C virus NS5B polymerase. On the set-up: species or system Hepacivirus hominis.
Chain of Hepatitis C virus NS5B RNA-dependent RNA polymerase (Q8JXU8 whole entry): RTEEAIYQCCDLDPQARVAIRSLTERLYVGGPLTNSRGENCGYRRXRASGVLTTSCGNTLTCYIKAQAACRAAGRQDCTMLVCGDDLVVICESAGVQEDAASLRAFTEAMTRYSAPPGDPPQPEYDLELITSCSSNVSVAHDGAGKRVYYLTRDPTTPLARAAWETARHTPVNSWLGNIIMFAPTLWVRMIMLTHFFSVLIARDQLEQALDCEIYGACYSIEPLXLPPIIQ
Details: not given
As for `CC1CCC(C(=O)N(C)c2ccc(Oc3ccccc3C(F)(F)F)cc2C(=O)O)CC1` (stereo not given), it took 0.2 µM to reach half-maximal inhibition (IC50). `O=C(O)[C@H](Cc1ccccc1)N(Cc1cccc([N+](=O)[O-])c1)C(=O)c1ccc(Cl)cc1Cl` gave an IC50 of 0.7 µM. Still for that read-out and setting: then `N#Cc1cccc(CN(C(=O)c2ccc(Cl)cc2Cl)[C@@H](Cc2ccccc2)C(=O)O)c1`, with 0.8 µM; and `O=C(O)[C@H](Cc1ccccc1)N(Cc1cccc(C(F)(F)F)c1)C(=O)c1ccc(Cl)cc1Cl`, with 1.7 µM.

Another data set relates to Hepatitis C virus. In words: Antiviral activity against Hepatitis C virus. It counts as functional, organism-based, Hepacivirus hominis.
Details: not given
For `CC1CCC(C(=O)N(C)c2ccc(Oc3ccccc3C(F)(F)F)cc2C(=O)O)CC1` (stereo not given), the concentration for a half-maximal effect (EC50) was 1.1 µM.

Another data set deals with Hepatitis C virus. In words: Antiviral activity against Hepatitis C virus genotype 1b infected in human Huh-7 cells assessed as inhibition of viral growth incubated for 3 days. It counts as functional, organism-based, Hepacivirus hominis. The following applies: Huh-7, 72 h.
`O=C(c1ccc(Cl)cc1Cl)N(Cc1cccc(F)c1)C(Cc1ccccc1)c1noc(=O)[nH]1` (stereo not given): the 50% effective concentration (EC50) is > 50 µM.

On to `O=C(c1ccc(Cl)cc1Cl)N(Cc1cccc(C(F)(F)F)c1)C(Cc1ccccc1)c1noc(=O)[nH]1` (stereo not given), for which the half-maximal effective concentration (EC50) was > 50 µM. With `CC(C)(C)C(=O)OCn1c(C(Cc2ccccc2)N(Cc2cccc(C(F)(F)F)c2)C(=O)c2ccc(Cl)cc2Cl)noc1=S` (stereo not given), the EC50 was > 50 µM. `N/C(=N\O)C(Cc1ccccc1)N(Cc1cccc([N+](=O)[O-])c1)C(=O)c1ccc(Cl)cc1Cl` (stereo not given): the half-maximal effective concentration (EC50) came out at 11.3 µM.

As to `O=C(c1ccc(Cl)cc1Cl)N(Cc1cccc(Br)c1)C(Cc1ccccc1)c1noc(=O)[nH]1` (stereo not given), the EC50 was > 50 µM. In the case of `N/C(=N\O)C(Cc1ccccc1)N(Cc1cccc(F)c1)C(=O)c1ccc(Cl)cc1Cl` (stereo not given), the concentration giving a half-maximal response (EC50) was > 50 µM. For the compound `N#CC(Cc1ccccc1)N(Cc1cccc([N+](=O)[O-])c1)C(=O)c1ccc(Cl)cc1Cl` (stereo not given), the concentration giving a half-maximal response (EC50) was 5.19 µM. The same measure, in the same setting: under `N/C(=N\O)C(Cc1ccccc1)N(Cc1cccc(Br)c1)C(=O)c1ccc(Cl)cc1Cl` (stereo not given) stands 6.36 µM; under `N#CC(Cc1ccccc1)N(Cc1cccc(F)c1)C(=O)c1ccc(Cl)cc1Cl` (stereo not given), 3.72 µM. For `Cn1c(C(Cc2ccccc2)N(Cc2cccc(C(F)(F)F)c2)C(=O)c2ccc(Cl)cc2Cl)noc1=S` (stereo not given), the 50% effective concentration (EC50) amounted to 8.09 µM. The same measure, in the same setting: under `O=C(c1ccc(Cl)cc1Cl)N(Cc1cccc(Br)c1)C(Cc1ccccc1)c1noc(=S)[nH]1` (stereo not given) stands > 50 µM; under `CC1=CC[C@H](C(=O)N(c2cc(C#CC(C)(C)C)sc2C(=O)O)[C@H]2CC[C@](O)(CO[C@H]3CCOC3)CC2)CC1` [RADALBUVIR], 0.052 µM; under `N#CC(Cc1ccccc1)N(Cc1cccc(Br)c1)C(=O)c1ccc(Cl)cc1Cl` (stereo not given), > 50 µM.

Turning to `N#CC(Cc1ccccc1)N(Cc1cccc(C(F)(F)F)c1)C(=O)c1ccc(Cl)cc1Cl` (stereo not given), the EC50 is > 50 µM. Consider `CC(C)(C)C(=O)OCn1c(C(Cc2ccccc2)N(Cc2cccc([N+](=O)[O-])c2)C(=O)c2ccc(Cl)cc2Cl)noc1=S` (stereo not given), for which the EC50 is > 50 µM. On the same count and under the same terms, then `O=C(c1ccc(Cl)cc1Cl)N(Cc1cccc(C(F)(F)F)c1)C(Cc1ccccc1)c1noc(=S)[nH]1` (stereo not given), with > 50 µM; and `O=C(c1ccc(Cl)cc1Cl)N(Cc1cccc(F)c1)C(Cc1ccccc1)c1noc(=S)[nH]1` (stereo not given), with > 50 µM. Same read-out and setting: then `O=C(c1ccc(Cl)cc1Cl)N(Cc1cccc([N+](=O)[O-])c1)C(Cc1ccccc1)c1noc(=O)[nH]1` (stereo not given), with > 50 µM; and `N/C(=N\O)C(Cc1ccccc1)N(Cc1cccc(C(F)(F)F)c1)C(=O)c1ccc(Cl)cc1Cl` (stereo not given), with 3.91 µM; and `O=C(c1ccc(Cl)cc1Cl)N(Cc1cccc([N+](=O)[O-])c1)C(Cc1ccccc1)c1noc(=S)[nH]1` (stereo not given), with > 50 µM.

Tested on in a further data set: not listed separately
In words: Cytotoxicity against human Huh-7 cells assessed as cell viability.
Details: not given
It counts as toxicity, cell-based.
Turning to `O=C(c1ccc(Cl)cc1Cl)N(Cc1cccc(F)c1)C(Cc1ccccc1)c1noc(=O)[nH]1` (stereo not given), the cytotoxic concentration (CC50) was > 50 µM.

Consider `O=C(c1ccc(Cl)cc1Cl)N(Cc1cccc(C(F)(F)F)c1)C(Cc1ccccc1)c1noc(=O)[nH]1` (stereo not given), for which the cytotoxic concentration (CC50) was 49.2 µM. Turning to `CC(C)(C)C(=O)OCn1c(C(Cc2ccccc2)N(Cc2cccc(C(F)(F)F)c2)C(=O)c2ccc(Cl)cc2Cl)noc1=S` (stereo not given), the half-maximal cytotoxic concentration (CC50) is > 50 µM. In the case of `N/C(=N\O)C(Cc1ccccc1)N(Cc1cccc([N+](=O)[O-])c1)C(=O)c1ccc(Cl)cc1Cl` (stereo not given), the CC50 worked out at 18.2 µM. For `O=C(c1ccc(Cl)cc1Cl)N(Cc1cccc(Br)c1)C(Cc1ccccc1)c1noc(=O)[nH]1` (stereo not given), the 50% cytotoxic concentration (CC50) was > 50 µM.

As to `N/C(=N\O)C(Cc1ccccc1)N(Cc1cccc(F)c1)C(=O)c1ccc(Cl)cc1Cl` (stereo not given), the CC50 was > 50 µM. On the same count and under the same terms, then `N#CC(Cc1ccccc1)N(Cc1cccc([N+](=O)[O-])c1)C(=O)c1ccc(Cl)cc1Cl` (stereo not given), with > 50 µM; and `N/C(=N\O)C(Cc1ccccc1)N(Cc1cccc(Br)c1)C(=O)c1ccc(Cl)cc1Cl` (stereo not given), with 16.1 µM. As for `N#CC(Cc1ccccc1)N(Cc1cccc(F)c1)C(=O)c1ccc(Cl)cc1Cl` (stereo not given), the CC50 was > 50 µM. The same measure, in the same setting: then `Cn1c(C(Cc2ccccc2)N(Cc2cccc(C(F)(F)F)c2)C(=O)c2ccc(Cl)cc2Cl)noc1=S` (stereo not given), with > 50 µM.

In the case of `O=C(c1ccc(Cl)cc1Cl)N(Cc1cccc(Br)c1)C(Cc1ccccc1)c1noc(=S)[nH]1` (stereo not given), the 50% cytotoxic concentration (CC50) is > 50 µM.

For the compound `CC1=CC[C@H](C(=O)N(c2cc(C#CC(C)(C)C)sc2C(=O)O)[C@H]2CC[C@](O)(CO[C@H]3CCOC3)CC2)CC1` [RADALBUVIR], the CC50 was > 50 µM.

For `N#CC(Cc1ccccc1)N(Cc1cccc(Br)c1)C(=O)c1ccc(Cl)cc1Cl` (stereo not given), the half-maximal cytotoxic concentration (CC50) was > 50 µM. For the compound `N#CC(Cc1ccccc1)N(Cc1cccc(C(F)(F)F)c1)C(=O)c1ccc(Cl)cc1Cl` (stereo not given), the CC50 was > 50 µM. In the case of `CC(C)(C)C(=O)OCn1c(C(Cc2ccccc2)N(Cc2cccc([N+](=O)[O-])c2)C(=O)c2ccc(Cl)cc2Cl)noc1=S` (stereo not given), the half-maximal cytotoxic concentration (CC50) is > 50 µM. Same read-out and setting: then `O=C(c1ccc(Cl)cc1Cl)N(Cc1cccc(C(F)(F)F)c1)C(Cc1ccccc1)c1noc(=S)[nH]1` (stereo not given), with > 50 µM; and `O=C(c1ccc(Cl)cc1Cl)N(Cc1cccc(F)c1)C(Cc1ccccc1)c1noc(=S)[nH]1` (stereo not given), with > 50 µM. Take `O=C(c1ccc(Cl)cc1Cl)N(Cc1cccc([N+](=O)[O-])c1)C(Cc1ccccc1)c1noc(=O)[nH]1` (stereo not given): the half-maximal cytotoxic concentration (CC50) is > 50 µM. As to `N/C(=N\O)C(Cc1ccccc1)N(Cc1cccc(C(F)(F)F)c1)C(=O)c1ccc(Cl)cc1Cl` (stereo not given), the CC50 amounted to 11 µM. Regarding `O=C(c1ccc(Cl)cc1Cl)N(Cc1cccc([N+](=O)[O-])c1)C(Cc1ccccc1)c1noc(=S)[nH]1` (stereo not given), the CC50 was > 50 µM.
